In ChEMBL document CHEMBL1909294, “Translating clinical findings into knowledge in drug safety evaluation--drug induced liver injury prediction system (DILIps)” (PLoS Comput Biol, 2011):

Columns and labels:
Hepatotoxicity [1] = tested on: Hepatotoxicity;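 for HepSE bilirubinemia: bilirubinemia hepatic side effect score drawn from the DILIps training data, a prediction system for drug-induced liver injury; call rule not given here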;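 for HepSE cholecystitis: Cholecystitis-related hepatic side effect score drawn from the DILIps (drug-induced liver injury prediction) training data set; call rule not given here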;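 for HepSE cirrhosis: cirrhosis hepatic side effect score taken from the DILIps (drug-induced liver injury prediction) training set; call rule not given here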;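 for HepSE jaundice: Jaundice-related hepatic side-effect score drawn from the training data of the DILIps (drug-induced liver injury prediction system); call rule not given here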; for HepSE liver disease: call rule not given here;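 for HepSE liver fatty: hepatic side effect score for fatty liver, taken from the DILIps training set for predicting drug-induced liver injury; call rule not given here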;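 for HepSE liver function tests abnormal: hepatic side effect score taken from the DILIps (drug-induced liver injury prediction system) training data, here covering abnormal liver function test findings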
Hepatotoxicity [2] = tested on: Hepatotoxicity; remark: listed apart in the source;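 for HepSE bilirubinemia: bilirubinemia hepatic side effect score drawn from the DILIps training data, a prediction system for drug-induced liver injury; call rule not given here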;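 for HepSE cholecystitis: Cholecystitis-related hepatic side effect score drawn from the DILIps (drug-induced liver injury prediction) training data set; call rule not given here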;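 for HepSE cirrhosis: cirrhosis hepatic side effect score taken from the DILIps (drug-induced liver injury prediction) training set; call rule not given here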;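 for HepSE jaundice: Jaundice-related hepatic side-effect score drawn from the training data of the DILIps (drug-induced liver injury prediction system); call rule not given here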; for HepSE liver disease: call rule not given here;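 for HepSE liver fatty: hepatic side effect score for fatty liver, taken from the DILIps training set for predicting drug-induced liver injury; call rule not given here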;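 for HepSE liver function tests abnormal: hepatic side effect score taken from the DILIps (drug-induced liver injury prediction system) training data, here covering abnormal liver function test findings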
Hepatotoxicity [3] = tested on: Hepatotoxicity; remark: listed apart in the source;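 for HepSE bilirubinemia: bilirubinemia hepatic side effect score drawn from the DILIps training data, a prediction system for drug-induced liver injury; call rule not given here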;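 for HepSE cholecystitis: Cholecystitis-related hepatic side effect score drawn from the DILIps (drug-induced liver injury prediction) training data set; call rule not given here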;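 for HepSE cirrhosis: cirrhosis hepatic side effect score taken from the DILIps (drug-induced liver injury prediction) training set; call rule not given here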;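 for HepSE jaundice: Jaundice-related hepatic side-effect score drawn from the training data of the DILIps (drug-induced liver injury prediction system); call rule not given here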; for HepSE liver disease: call rule not given here;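 for HepSE liver fatty: hepatic side effect score for fatty liver, taken from the DILIps training set for predicting drug-induced liver injury; call rule not given here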
Hepatotoxicity [4] = tested on: Hepatotoxicity; remark: listed apart in the source;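 for HepSE bilirubinemia: bilirubinemia hepatic side effect score drawn from the DILIps training data, a prediction system for drug-induced liver injury; call rule not given here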;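 for HepSE cholecystitis: Cholecystitis-related hepatic side effect score drawn from the DILIps (drug-induced liver injury prediction) training data set; call rule not given here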;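 for HepSE cirrhosis: cirrhosis hepatic side effect score taken from the DILIps (drug-induced liver injury prediction) training set; call rule not given here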;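 for HepSE jaundice: Jaundice-related hepatic side-effect score drawn from the training data of the DILIps (drug-induced liver injury prediction system); call rule not given here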; for HepSE liver disease: call rule not given here;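 for HepSE liver fatty: hepatic side effect score for fatty liver, taken from the DILIps training set for predicting drug-induced liver injury; call rule not given here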
Hepatotoxicity [5] = tested on: Hepatotoxicity; remark: listed apart in the source; for HepSE liver disease: call rule not given here
Hepatotoxicity [6] = tested on: Hepatotoxicity; remark: listed apart in the source; for HepSE liver disease: call rule not given here
Hepatotoxicity [7] = tested on: Hepatotoxicity; remark: listed apart in the source
Hepatotoxicity [8] = tested on: Hepatotoxicity; remark: listed apart in the source
Hepatotoxicity [9] = tested on: Hepatotoxicity; remark: listed apart in the source
Hepatotoxicity [10] = tested on: Hepatotoxicity; remark: listed apart in the source
Hepatotoxicity [11] = tested on: Hepatotoxicity; remark: listed apart in the source
Hepatotoxicity [12] = tested on: Hepatotoxicity; remark: listed apart in the source
Hepatotoxicity [13] = tested on: Hepatotoxicity; remark: listed apart in the source
Hepatotoxicity [14] = tested on: Hepatotoxicity; remark: listed apart in the source

## CN1CCN(CCCN2c3ccccc3Sc3ccc(C(F)(F)F)cc32)CC1 [TRIFLUOPERAZINE]
Hepatotoxicity [1]
  HepSE_liver disease: 0
Hepatotoxicity [2]
  HepSE_jaundice: 1
Hepatotoxicity [3]
  HepSE_cirrhosis: 0
Hepatotoxicity [4]
  HepSE_liver fatty: 0
Hepatotoxicity [5]
  HepSE_bilirubinemia: 0
Hepatotoxicity [6]
  HepSE_cholecystitis: 0
Hepatotoxicity [7]
  HepSE_liver function tests abnormal: 0
Hepatotoxicity [8]
  HepSE_cholelithiasis: 0
Hepatotoxicity [9]
  HepSE_hepatitis: 0
Hepatotoxicity [10]
  HepSE_Combined Scores: 1
Hepatotoxicity [11]
  HepSE_hepatic failure: 0
Hepatotoxicity [12]
  HepSE_hepatomegaly: 0
Hepatotoxicity [13]
  HepSE_hepatic necrosis: 0
Hepatotoxicity [14]
  HepSE_elevated liver function tests: 0

## O=c1[nH]c(=O)n([C@H]2C[C@H](O)[C@@H](CO)O2)cc1C(F)(F)F [TRIFLURIDINE]
Hepatotoxicity [1]
  HepSE_liver disease: 0
Hepatotoxicity [2]
  HepSE_jaundice: 0
Hepatotoxicity [3]
  HepSE_cirrhosis: 0
Hepatotoxicity [4]
  HepSE_liver fatty: 0
Hepatotoxicity [5]
  HepSE_bilirubinemia: 0
Hepatotoxicity [6]
  HepSE_cholecystitis: 0
Hepatotoxicity [7]
  HepSE_liver function tests abnormal: 0
Hepatotoxicity [8]
  HepSE_cholelithiasis: 0
Hepatotoxicity [9]
  HepSE_hepatitis: 0
Hepatotoxicity [10]
  HepSE_Combined Scores: 0
Hepatotoxicity [11]
  HepSE_hepatic failure: 0
Hepatotoxicity [12]
  HepSE_hepatomegaly: 0
Hepatotoxicity [13]
  HepSE_hepatic necrosis: 0
Hepatotoxicity [14]
  HepSE_elevated liver function tests: 0

## OC(CCN1CCCCC1)(c1ccccc1)C1CCCCC1 (configuration not stated) [TRIHEXYPHENIDYL]
Hepatotoxicity [1]; Liver
  HepSE_liver disease: 0
Hepatotoxicity [2]; Liver
  HepSE_jaundice: 0
Hepatotoxicity [3]; Liver
  HepSE_cirrhosis: 0
Hepatotoxicity [4]; Liver
  HepSE_liver fatty: 0
Hepatotoxicity [5]; Liver
  HepSE_bilirubinemia: 0
Hepatotoxicity [6]; Liver
  HepSE_cholecystitis: 0
Hepatotoxicity [7]; Liver
  HepSE_liver function tests abnormal: 0
Hepatotoxicity [8]; Liver
  HepSE_cholelithiasis: 0
Hepatotoxicity [9]; Liver
  HepSE_hepatitis: 0
Hepatotoxicity [10]; Liver
  HepSE_Combined Scores: 0
Hepatotoxicity [11]; Liver
  HepSE_hepatic failure: 0
Hepatotoxicity [12]; Liver
  HepSE_hepatomegaly: 0
Hepatotoxicity [13]; Liver
  HepSE_hepatic necrosis: 0
Hepatotoxicity [14]; Liver
  HepSE_elevated liver function tests: 0

## COc1cc(Cc2cnc(N)nc2N)cc(OC)c1OC [TRIMETHOPRIM]
Hepatotoxicity [1]; Liver
  HepSE_liver disease: 0
Hepatotoxicity [2]; Liver
  HepSE_jaundice: 1
Hepatotoxicity [3]; Liver
  HepSE_cirrhosis: 0
Hepatotoxicity [4]; Liver
  HepSE_liver fatty: 0
Hepatotoxicity [5]; Liver
  HepSE_bilirubinemia: 0
Hepatotoxicity [6]; Liver
  HepSE_cholecystitis: 0
Hepatotoxicity [7]; Liver
  HepSE_liver function tests abnormal: 0
Hepatotoxicity [8]; Liver
  HepSE_cholelithiasis: 0
Hepatotoxicity [9]; Liver
  HepSE_hepatitis: 0
Hepatotoxicity [10]; Liver
  HepSE_Combined Scores: 1
Hepatotoxicity [11]; Liver
  HepSE_hepatic failure: 0
Hepatotoxicity [12]; Liver
  HepSE_hepatomegaly: 0
Hepatotoxicity [13]; Liver
  HepSE_hepatic necrosis: 0
Hepatotoxicity [14]; Liver
  HepSE_elevated liver function tests: 0

## COc1cc(NCc2ccc3nc(N)nc(N)c3c2C)cc(OC)c1OC [TRIMETREXATE]
Hepatotoxicity [1]
  HepSE_liver disease: 0
Hepatotoxicity [2]
  HepSE_jaundice: 0
Hepatotoxicity [3]
  HepSE_cirrhosis: 0
Hepatotoxicity [4]
  HepSE_liver fatty: 0
Hepatotoxicity [5]
  HepSE_bilirubinemia: 0
Hepatotoxicity [6]
  HepSE_cholecystitis: 0
Hepatotoxicity [7]
  HepSE_liver function tests abnormal: 0
Hepatotoxicity [8]
  HepSE_cholelithiasis: 0
Hepatotoxicity [9]
  HepSE_hepatitis: 0
Hepatotoxicity [10]
  HepSE_Combined Scores: 0
Hepatotoxicity [11]
  HepSE_hepatic failure: 0
Hepatotoxicity [12]
  HepSE_hepatomegaly: 0
Hepatotoxicity [13]
  HepSE_hepatic necrosis: 0
Hepatotoxicity [14]
  HepSE_elevated liver function tests: 0

## CC(CN(C)C)CN1c2ccccc2CCc2ccccc21 (configuration not stated) [TRIMIPRAMINE]
Hepatotoxicity [1]
  HepSE_liver disease: 0
Hepatotoxicity [2]
  HepSE_jaundice: 1
Hepatotoxicity [3]
  HepSE_cirrhosis: 0
Hepatotoxicity [4]
  HepSE_liver fatty: 0
Hepatotoxicity [5]
  HepSE_bilirubinemia: 0
Hepatotoxicity [6]
  HepSE_cholecystitis: 0
Hepatotoxicity [7]
  HepSE_liver function tests abnormal: 0
Hepatotoxicity [8]
  HepSE_cholelithiasis: 0
Hepatotoxicity [9]
  HepSE_hepatitis: 0
Hepatotoxicity [10]
  HepSE_Combined Scores: 1
Hepatotoxicity [11]
  HepSE_hepatic failure: 0
Hepatotoxicity [12]
  HepSE_hepatomegaly: 0
Hepatotoxicity [13]
  HepSE_hepatic necrosis: 0
Hepatotoxicity [14]
  HepSE_elevated liver function tests: 0

## Cc1c(C)c2c(c(C)c1O)CCC(C)(COc1ccc(CC3SC(=O)NC3=O)cc1)O2 (configuration not stated) [TROGLITAZONE]
Hepatotoxicity [1]
  HepSE_liver disease: 0
Hepatotoxicity [2]
  HepSE_jaundice: 1
Hepatotoxicity [3]
  HepSE_cirrhosis: 0
Hepatotoxicity [4]
  HepSE_liver fatty: 0
Hepatotoxicity [5]
  HepSE_bilirubinemia: 0
Hepatotoxicity [6]
  HepSE_cholecystitis: 0
Hepatotoxicity [7]
  HepSE_liver function tests abnormal: 1
Hepatotoxicity [8]
  HepSE_cholelithiasis: 0
Hepatotoxicity [9]
  HepSE_hepatitis: 1
Hepatotoxicity [10]
  HepSE_Combined Scores: 3
Hepatotoxicity [11]
  HepSE_hepatic failure: 0
Hepatotoxicity [12]
  HepSE_hepatomegaly: 0
Hepatotoxicity [13]
  HepSE_hepatic necrosis: 0
Hepatotoxicity [14]
  HepSE_elevated liver function tests: 0

## NC(CO)(CO)CO [TROMETHAMINE]
Hepatotoxicity [1]; Liver
  HepSE_liver disease: 0
Hepatotoxicity [2]; Liver
  HepSE_jaundice: 0
Hepatotoxicity [3]; Liver
  HepSE_cirrhosis: 0
Hepatotoxicity [4]; Liver
  HepSE_liver fatty: 0
Hepatotoxicity [5]; Liver
  HepSE_bilirubinemia: 0
Hepatotoxicity [6]; Liver
  HepSE_cholecystitis: 0
Hepatotoxicity [7]; Liver
  HepSE_liver function tests abnormal: 0
Hepatotoxicity [8]; Liver
  HepSE_cholelithiasis: 0
Hepatotoxicity [9]; Liver
  HepSE_hepatitis: 0
Hepatotoxicity [10]; Liver
  HepSE_Combined Scores: 0
Hepatotoxicity [11]; Liver
  HepSE_hepatic failure: 0
Hepatotoxicity [12]; Liver
  HepSE_hepatomegaly: 0
Hepatotoxicity [13]; Liver
  HepSE_hepatic necrosis: 0
Hepatotoxicity [14]; Liver
  HepSE_elevated liver function tests: 0
